This note sets out measurements from US6500845B1, “Lactam derivatives as immunomodulating agents” (Gruenenthal GmbH, priority 1994, dated 2002).

Converted amounts (≈) assume the structure as drawn. A value given as a limit tells only on which side of the number the result lay.

Data set [1] has as its system IL-2 release in vivo (T-lymphocytes stimulated by staphylococcal enterotoxin B). Set-up: species or system Balb/c mice. Conditions: mouse; for ED40 (dosage reducing serum IL-2 concentrations by 40%): ip.
For data set [2], the system named is LPS-induced TNF-α release, human mononuclear cells. In words: LPS-induced TNF-α release from human mononuclear cells of the peripheral blood. The following applies: 20 hours incubation; for IC50: Homo sapiens, LPS-induced, read-out: IC50 (50% inhibition in the release of TNF-α); for Inhibition of TNF-α release in (%): concentration of 50 μ/ml, LPS 2.5 μg. The data set is classed as cell-based. An excerpt: The release of cytokines from human mononuclear cells of the peripheral blood, i.e. T-cells, B-cells and monocytes, can be studied in vitro after stimulation by lipopolysaccharide (LPS) or the toxic shock syndrome toxin-1 (TSST-1). LPS is a component of the bacterial cell wall and stimulates monocytes and macrophages. TSST-1 is a bacterial superantigen that stimulates T-cells as well as monocytes/macrophages. Superantigens bind to the Vβ chain of the T-cell receptor and to the MHC class II and thus simulate the recognition by a specific T-cell receptor of an antigen presented by the MHC class II. Activation of cells by LPS or TSST-1 induces the release of TNF-α, IFN-γ and other cytokines.
Mononuclear cells were prepared from the heparinized blood of at least three voluntary donors. For this purpose, 20 ml blood samples each were separated according to well known procedures using a Ficoll-Paque gradient. The cells were harvested and washed three times with a cell culture medium. This cell culture medium was composed of RPMI 1640 medium supplemented with 2 mM of glutamine (Life Technologies, Eggenstein, Germany), 10% fetal calf serum (Life Technologies), 50 μg/ml of streptomycin (Sigma, Deisenhofen, Germany), 50 IU/ml of penicillin (Sigma) and 100 μM of b-mercaptoethanol (Merck, Darmstadt, Germany). The mononuclear cells were suspended in 15 ml of cell culture medium and separated in 1 ml fractions in sterile 24-well incubation plates (Sigma). 1 μl of dimethylsulfoxide (DMSO) or 1 μl of a DMSO-solution containing 5 ′ by weight of a compound according to the invention was added to each of the 1 ml fractions. After incubation for 1 hour in a CO2-incubator (5% CO2, 90% humidity), 2.5 μg of LPS (from E. coli 0127: B8, Sigma) or 0.1 μg of TSST-1 (Sigma) were added to each of the fractions containing a compound according to the invention. Incubation of the cultures was continued for 20 hours. The concentrations of TNF-α and IFN-γ in the cell culture supernatants were determined with commercial ELISA-tests (Boehringer Mannheim, Germany; Endogen, Boston, Mass.).
The IC50 value is the concentration in μg/ml which produces a 50% inhibition in the release of TFN-α.

Data set [3] deals with TSST-1-induced release of TNF-α, human mononuclear cells. The data set is classed as cell-based.
Data set [4] relates to TSST-1-induced release of IFN-γ, human mononuclear cells. The data set is classed as cell-based.

In the case of `CC1(N2Cc3ccccc3C2=O)CCC(=O)NC1=O` (single isomer, unassigned; (-)) [Example 3 (−) enantiomer, (−)-3-Methyl-3-(1-oxo-1,3-dihydro-isoindol-2-yl)-piperidine-2,6-dione], in data set [1], the “Maximum inhibition of serum IL-2 increase in %” value was 54 ± 5% and the “ED40 (dosage reducing serum IL-2 concentrations by 40%)” value is 297 mg/kg i.p. Moreover, in data set [2], the concentration for half-maximal inhibition (IC50) was found to be 8 µg/mL (≈ 31 µM) and the “Inhibition of TNF-α release in (%)” value came out at 82 ± 5%.
For `O=C1CCC(N2C(=O)c3ccccc3C2=O)C(=O)N1` (stereo not drawn) [Thalidomide, reference compound], in data set [1], the “Maximum inhibition of serum IL-2 increase in %” value was 56 ± 10% and the “ED40 (dosage reducing serum IL-2 concentrations by 40%)” value is reported as 171 mg/kg i.p. Further, in data set [2], the IC50 was 50 µg/mL (≈ 194 µM) and the “Inhibition of TNF-α release in (%)” value came to 54 ± 7%.
For the molecule `CC1(n2sc3ccccc3c2=O)CCCNC1=O` (stereo not drawn) [Example 4, 2-(3-methyl-2-oxo-piperidin-3-yl)-benzo[d]isothiazol-3-one], in data set [1], the “Maximum inhibition of serum IL-2 increase in %” value amounted to 52 ± 3% and the “ED40 (dosage reducing serum IL-2 concentrations by 40%)” value is less than 10 mg/kg i.p. The “Inhibition of TNF-α release in (%)” value in data set [2] is listed as 93 ± 9%.
With `CC1(N2Cc3ccccc3C2=O)CCC(=O)NC1=O` (racemic) [Example 2, 3-Methyl-3-(1-oxo-1,3-dihydro-isoindol-2-yl)-piperidine-2,6-dione], the melting point was in the range of 231 to 232 °C. Moreover, in data set [1], the “Maximum inhibition of serum IL-2 increase in %” value was determined as 56 ± 3% and the “ED40 (dosage reducing serum IL-2 concentrations by 40%)” value is listed as 112 mg/kg i.p. In data set [2], the half-inhibitory concentration (IC50) was determined as 10 µg/mL (≈ 38.7 µM) and the “Inhibition of TNF-α release in (%)” value stood at 72 ± 8%. The “Effect on TSST-1-induced release of TNF-α” value in data set [3] is on record as “enhanced compared to thalidomide”. The “Effect on TSST-1-induced release of IFN-γ” value in data set [4] was “enhanced compared to thalidomide”.
For `CC1(n2[se]c3ccccc3c2=O)CCCNC1=O` (stereo not drawn) [Example 1, 2-(3-Methyl-2-oxo-piperidin-3-yl)-benzo[d]isoselenazol-3-one], in data set [1], the “Maximum inhibition of serum IL-2 increase in %” value amounted to 43 ± 5% and the “ED40 (dosage reducing serum IL-2 concentrations by 40%)” value is given as “ca. 20^ mg/kg i.p”. The “Inhibition of TNF-α release in (%)” value in data set [2] is given as 93 ± 1%.

What is called IC50 is the point on the concentration scale where inhibition reaches its midpoint. Broadly, the melting point is the temperature, or range, at which the solid turns liquid.
